Results from patent publication US20230085307A1, “PYRIDAZINONE COMPOUND AND HERBICIDE” (NISSAN CHEMICAL CORPORATION, priority 2019, published 2023).

These compounds were tested on late watergrass (assay: Test Example 1: herbicidal activity, application before weed generation under submerged conditions (Table 16, symbol A)). Conditions: 320 g/ha applied herbicide.
Type: in vivo, late watergrass (Echinochloa oryzicola)
Summary of the method: (§1)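 Emulsion formulation, water-diluted to set dose, was put onto the flooded surface (4 cm depth, alluvial soil) the same day weeds were sown and 2.5-leaf rice transplanted. After 3 weeks at 25-30 °C under glass, each species was rated 0 (≤5% kill) to 5 (≥90% kill).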
For CCCC(=O)Oc1c(C)nn(C)c(=O)c1-c1c(-c2ccc(OCC)cc2)sc2ccccc12 [1-014], the “Herbicidal effect on A: late watergrass (grade 0-5)” value was 5 (Herbicidal rate of 90% or more (almost completely withered)).
With CCCC(=O)Oc1c(C)nn(C)c(=O)c1-c1c(-c2ccc(OC)c(OC)c2)sc2ccccc12 [1-073] the “Herbicidal effect on A: late watergrass (grade 0-5)” value was 5 (Herbicidal rate of 90% or more (almost completely withered)).

What follows are compounds tested on Japanese bulrush (assay: Test Example 1: herbicidal activity, application before weed generation under submerged conditions (Table 16, symbol B)). Conditions: 320 g/ha applied herbicide.
Type: in vivo, Japanese bulrush (Schoenoplectus juncoides)
Summary of the method: as §1
In the case of CCCC(=O)Oc1c(C)nn(C)c(=O)c1-c1c(-c2ccc(OCC)cc2)sc2ccccc12 [1-014], the “Herbicidal effect on B: Japanese bulrush (grade 0-5)” value is reported as 5 (Herbicidal rate of 90% or more (almost completely withered)).
CCCC(=O)Oc1c(C)nn(C)c(=O)c1-c1c(-c2ccc(OC)c(OC)c2)sc2ccccc12 [1-073] was tested, and the “Herbicidal effect on B: Japanese bulrush (grade 0-5)” value was 4 (Herbicidal rate of 70% or more and less than 90%).

Each compound was assayed on late watergrass (assay: Test Example 2: herbicidal activity, application during weed generation under submerged conditions (Table 17, symbol A)). Conditions: AAH 320 g/ha; application during weed generation, submerged conditions.
Type: in vivo, late watergrass (Echinochloa oryzicola)
Summary of the method: (§2)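 Herbicide emulsion, diluted with water to the chosen amount, is applied onto 4 cm floodwater over alluvial soil where the weeds were co-sown and raised at 25–30° C. Application timing: 1–2 leaves. Assessment: three weeks afterwards.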
CCCC(=O)Oc1c(C)nn(C)c(=O)c1-c1c(-c2ccc(OCC)cc2)sc2ccccc12 [1-014] was tested, and the “herbicidal effect rating, A: late watergrass” value was 3 (Herbicidal rate of 40% or more and less than 70%).
With CCCC(=O)Oc1c(C)nn(C)c(=O)c1-c1c(-c2ccc(OC)c(OC)c2)sc2ccccc12 [1-073] the “herbicidal effect rating, A: late watergrass” value was 4 (Herbicidal rate of 70% or more and less than 90%).

What follows are compounds tested on oval-leafed pondweed (assay: Test Example 2: herbicidal activity, application during weed generation under submerged conditions (Table 17, symbol C)). Conditions: AAH 320 g/ha; application during weed generation, submerged conditions.
Type: in vivo, oval-leafed pondweed (Monochoria vaginalis)
Summary of the method: as §2
CCCC(=O)Oc1c(C)nn(C)c(=O)c1-c1c(-c2ccc(OCC)cc2)sc2ccccc12 [1-014] was tested, and the “herbicidal effect rating, C: oval-leafed pondweed” value was 3 (Herbicidal rate of 40% or more and less than 70%).
CCCC(=O)Oc1c(C)nn(C)c(=O)c1-c1c(-c2ccc(OC)c(OC)c2)sc2ccccc12 [1-073] was tested, and the “herbicidal effect rating, C: oval-leafed pondweed” value was 5 (Herbicidal rate of 90% or more (almost completely withered)).

What follows are compounds tested on barnyard grass (assay: Test Example 3: herbicidal effect by foliage application, Wagner pot (Table 18, symbol H)). Conditions: 320 g/ha.
Type: in vivo, barnyard grass (Echinochloa crus-galli)
Summary of the method: (§3)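 Plants were sown in alluvial soil held under 0.1–0.5 cm standing water and grown 14 days in a greenhouse at 25–30 °C. An emulsifiable formulation, water-diluted to the set dose, was then sprayed onto the foliage, and effects were scored three weeks later using previously defined criteria.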
In the case of CCCC(=O)Oc1c(C)nn(C)c(=O)c1-c1c(-c2ccc(OCC)cc2)sc2ccccc12 [1-014], the “herbicidal effect on H (barnyard grass), rating 0-5” value is reported as 4 (Herbicidal rate of 70% or more and less than 90%).
For CCCC(=O)Oc1c(C)nn(C)c(=O)c1-c1c(-c2ccc(OC)c(OC)c2)sc2ccccc12 [1-073], the “herbicidal effect on H (barnyard grass), rating 0-5” value was 5 (Herbicidal rate of 90% or more (almost completely withered)).

The compounds below were run on Chinese sprangletop (assay: Test Example 3: herbicidal effect by foliage application, Wagner pot (Table 18, symbol D)). Conditions: 320 g/ha.
Type: in vivo, chinese sprangletop (Leptochloa chinensis)
Summary of the method: as §3
In the case of CCCC(=O)Oc1c(C)nn(C)c(=O)c1-c1c(-c2ccc(OCC)cc2)sc2ccccc12 [1-014], the “herbicidal effect on D (Chinese sprangletop), rating 0-5” value is reported as 0 (Herbicidal rate of 5% or less (almost no effect)).
For CCCC(=O)Oc1c(C)nn(C)c(=O)c1-c1c(-c2ccc(OC)c(OC)c2)sc2ccccc12 [1-073], the “herbicidal effect on D (Chinese sprangletop), rating 0-5” value was 3 (Herbicidal rate of 40% or more and less than 70%).

What follows are compounds tested on rice flat sedge (assay: Test Example 3: herbicidal effect by foliage application, Wagner pot (Table 18, symbol E)). Conditions: 320 g/ha.
Type: in vivo, rice flat sedge (Cyperus iria)
Summary of the method: as §3
With CCCC(=O)Oc1c(C)nn(C)c(=O)c1-c1c(-c2ccc(OCC)cc2)sc2ccccc12 [1-014] the “herbicidal effect on E (rice flat sedge), rating 0-5” value was 5 (Herbicidal rate of 90% or more (almost completely withered)).
With CCCC(=O)Oc1c(C)nn(C)c(=O)c1-c1c(-c2ccc(OC)c(OC)c2)sc2ccccc12 [1-073] the “herbicidal effect on E (rice flat sedge), rating 0-5” value was 5 (Herbicidal rate of 90% or more (almost completely withered)).

These compounds were tested on Italian ryegrass (assay: Test Example 4: herbicidal effect by soil treatment (Table 19, symbol K)). Conditions: amount of applied herbicide 320 g/ha.
Type: in vivo, Italian ryegrass (Lolium multiflorum)
Summary of the method: (§4)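 Pre-emergence style soil spray: seeds under ~1.5 cm sterilized diluvial soil received a uniform coat of emulsion diluted to the predetermined herbicide amount. Greenhouse 25–30° C; readout at week three on previously defined criteria.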
For CCCC(=O)Oc1c(C)nn(C)c(=O)c1-c1c(-c2ccc(OCC)cc2)sc2ccccc12 [1-014], the “herbicidal effect rating, K: Italian ryegrass” value was 0 (Herbicidal rate of 5% or less (almost no effect)).
For CCCC(=O)Oc1c(C)nn(C)c(=O)c1-c1c(-c2ccc(OC)c(OC)c2)sc2ccccc12 [1-073], the “herbicidal effect rating, K: Italian ryegrass” value was 5 (Herbicidal rate of 90% or more (almost completely withered)).

The compounds below were run on windgrass (assay: Test Example 4: herbicidal effect by soil treatment (Table 19, symbol L)). Conditions: amount of applied herbicide 320 g/ha.
Type: in vivo, windgrass (Apera spica-venti)
Summary of the method: as §4
In the case of CCCC(=O)Oc1c(C)nn(C)c(=O)c1-c1c(-c2ccc(OCC)cc2)sc2ccccc12 [1-014], the “herbicidal effect rating, L: windgrass” value is reported as 0 (Herbicidal rate of 5% or less (almost no effect)).
In the case of CCCC(=O)Oc1c(C)nn(C)c(=O)c1-c1c(-c2ccc(OC)c(OC)c2)sc2ccccc12 [1-073], the “herbicidal effect rating, L: windgrass” value is reported as 1 (Herbicidal rate of 5% or more and less than 20%).

Each compound was assayed on redroot pigweed (assay: Test Example 4: herbicidal effect by soil treatment (Table 19, symbol N)). Conditions: amount of applied herbicide 320 g/ha.
Type: in vivo, redroot pigweed (Amaranthus retroflexus)
Summary of the method: as §4
In the case of CCCC(=O)Oc1c(C)nn(C)c(=O)c1-c1c(-c2ccc(OCC)cc2)sc2ccccc12 [1-014], the “herbicidal effect rating, N: redroot pigweed” value is reported as 0 (Herbicidal rate of 5% or less (almost no effect)).
CCCC(=O)Oc1c(C)nn(C)c(=O)c1-c1c(-c2ccc(OC)c(OC)c2)sc2ccccc12 [1-073] was tested, and the “herbicidal effect rating, N: redroot pigweed” value was 4 (Herbicidal rate of 70% or more and less than 90%).

Each compound was assayed on southern crabgrass (assay: Test Example 5: herbicidal effect by foliage application, plastic box (Table 20, symbol F)). Conditions: foliage application, 320 g/ha, three weeks after application.
Type: in vivo, southern crabgrass (Digitaria ciliaris)
Summary of the method: (§5)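 Plants were sown into sterilized diluvial soil under about 1.5 cm cover and kept in a greenhouse at 25° C. to 30° C. Fourteen days on, foliage received an even spray of the diluted emulsion. Herbicidal or crop effect was judged three weeks afterwards.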
In the case of CCCC(=O)Oc1c(C)nn(C)c(=O)c1-c1c(-c2ccc(OCC)cc2)sc2ccccc12 [1-014], the “herbicidal effect grade, F: southern crabgrass” value is reported as 0 (Herbicidal rate of 5% or less (almost no effect)).
In the case of CCCC(=O)Oc1c(C)nn(C)c(=O)c1-c1c(-c2ccc(OC)c(OC)c2)sc2ccccc12 [1-073], the “herbicidal effect grade, F: southern crabgrass” value is reported as 5 (Herbicidal rate of 90% or more (almost completely withered)).

Each compound was assayed on green foxtail (assay: Test Example 5: herbicidal effect by foliage application, plastic box (Table 20, symbol G)). Conditions: foliage application, 320 g/ha, three weeks after application.
Type: in vivo, green foxtail (Setaria viridis)
Summary of the method: as §5
With CCCC(=O)Oc1c(C)nn(C)c(=O)c1-c1c(-c2ccc(OCC)cc2)sc2ccccc12 [1-014] the “herbicidal effect grade, G: green foxtail” value was 4 (Herbicidal rate of 70% or more and less than 90%).
For CCCC(=O)Oc1c(C)nn(C)c(=O)c1-c1c(-c2ccc(OC)c(OC)c2)sc2ccccc12 [1-073], the “herbicidal effect grade, G: green foxtail” value was 5 (Herbicidal rate of 90% or more (almost completely withered)).

What follows are compounds tested on barnyard grass (assay: Test Example 5: herbicidal effect by foliage application, plastic box (Table 20, symbol H)). Conditions: foliage application, 320 g/ha, three weeks after application.
Type: in vivo, barnyard grass (Echinochloa crus-galli)
Summary of the method: as §5
With CCCC(=O)Oc1c(C)nn(C)c(=O)c1-c1c(-c2ccc(OCC)cc2)sc2ccccc12 [1-014] the “herbicidal effect grade, H: barnyard grass” value was 4 (Herbicidal rate of 70% or more and less than 90%).
In the case of CCCC(=O)Oc1c(C)nn(C)c(=O)c1-c1c(-c2ccc(OC)c(OC)c2)sc2ccccc12 [1-073], the “herbicidal effect grade, H: barnyard grass” value is reported as 5 (Herbicidal rate of 90% or more (almost completely withered)).

These compounds were tested on wild oat (assay: Test Example 5: herbicidal effect by foliage application, plastic box (Table 20, symbol I)). Conditions: foliage application, 320 g/ha, three weeks after application.
Type: in vivo, wild oat (Avena fatua)
Summary of the method: as §5
For CCCC(=O)Oc1c(C)nn(C)c(=O)c1-c1c(-c2ccc(OCC)cc2)sc2ccccc12 [1-014], the “herbicidal effect grade, I: wild oat” value was 1 (Herbicidal rate of 5% or more and less than 20%).
In the case of CCCC(=O)Oc1c(C)nn(C)c(=O)c1-c1c(-c2ccc(OC)c(OC)c2)sc2ccccc12 [1-073], the “herbicidal effect grade, I: wild oat” value is reported as 2 (Herbicidal rate of 20% or more and less than 40%).

The compounds below were run on blackgrass (assay: Test Example 5: herbicidal effect by foliage application, plastic box (Table 20, symbol J)). Conditions: foliage application, 320 g/ha, three weeks after application.
Type: in vivo, blackgrass (Alopecurus myosuroides)
Summary of the method: as §5
In the case of CCCC(=O)Oc1c(C)nn(C)c(=O)c1-c1c(-c2ccc(OCC)cc2)sc2ccccc12 [1-014], the “herbicidal effect grade, J: blackgrass” value is reported as 0 (Herbicidal rate of 5% or less (almost no effect)).
For CCCC(=O)Oc1c(C)nn(C)c(=O)c1-c1c(-c2ccc(OC)c(OC)c2)sc2ccccc12 [1-073], the “herbicidal effect grade, J: blackgrass” value was 4 (Herbicidal rate of 70% or more and less than 90%).

These compounds were tested on persian speedwell (assay: Test Example 5: herbicidal effect by foliage application, plastic box (Table 20, symbol R)). Conditions: foliage application, 320 g/ha, three weeks after application.
Type: in vivo, Persian speedwell (Veronica persica)
Summary of the method: as §5
For CCCC(=O)Oc1c(C)nn(C)c(=O)c1-c1c(-c2ccc(OCC)cc2)sc2ccccc12 [1-014], the “herbicidal effect grade, R: persian speedwell” value was 5 (Herbicidal rate of 90% or more (almost completely withered)).
With CCCC(=O)Oc1c(C)nn(C)c(=O)c1-c1c(-c2ccc(OC)c(OC)c2)sc2ccccc12 [1-073] the “herbicidal effect grade, R: persian speedwell” value was 5 (Herbicidal rate of 90% or more (almost completely withered)).
